Data from ChEMBL document CHEMBL6087449, “Identification of an Isoxazole Derivative as an Antitubercular Compound for Targeting the FadD Enzymes of Mycobacterium tuberculosis” (J Med Chem, 2025).
In brackets after ≈: the same amount, converted by molar mass.

How the values were obtained:
[1] = test system: Mycobacterium tuberculosis; experiment: Antitubercular activity against Mycobacterium tuberculosis by alamar blue assay; type: functional
[2] = test system: Mycobacterium tuberculosis; experiment: Antitubercular activity against Mycobacterium tuberculosis H37Rv; type: functional
[3] = test system: Mycolicibacterium smegmatis; experiment: Antimycobacterial activity against Mycobacterium smegmatis; type: functional
[4] = compound: Oc1c(Br)cc(Br)cc1-c1cc(C(F)(F)F)no1; experiment: Binding affinity to Mycobacterium tuberculosis H37Rv recombinant FadD32 assessed as Km in presence of ATP by Michaelis-Menten plot analysis
[5] = compound: Oc1c(Br)cc(Br)cc1-c1cc(C(F)(F)F)no1; experiment: Binding affinity to Mycobacterium tuberculosis H37Rv recombinant FadD32 assessed as Km in presence of lauric acid by Michaelis-Menten plot analysis

Row | Molecule | MIC [1] | MIC [2] | MIC [3] | Km [4] | Km [5]
1 | Nc1ncnc2c1ncn2[C@@H]1O[C@H](COS(=O)(=O)NC(=O)c2ccc(O)cc2)[C@@H](O)[C@H]1O | > 800 µM |  |  |  | 
2 | CCCCCCCCCCCC(=O)NS(=O)(=O)OC[C@H]1O[C@@H](n2cnc3c(N)ncnc32)[C@H](O)[C@@H]1O | 100 µM (≈ 52.9 µg/mL) | 100 µM (≈ 52.9 µg/mL) | 215 µM (≈ 114 µg/mL) |  | 
3 | Long-chain-fatty-acid--AMP ligase FadD32 (Mycobacterium tuberculosis (strain ATCC 25618 / H37Rv)), O53580 (protein) MFVTGESGMAYHNPFIVNGKIRFPANTNLVRHVEKWAKVRGDKLAYRFLDFSTERDGVARDILWSDFSARNRAVGARLQQVTQPGDRVAILCPQNLDYLISFFGALYSGRIAVPLFDPAEPGHVGRLHAVLDDCAPSTILTTTDSAEGVRKFIRARSAKERPRVIAVDAVPTEVAATWQQPEANEETVAYLQYTSGSTRIPSGVQITHLNLPTNVVQVLNALEGQEGDRGVSWLPFFHDMGLITVLLASVLGHSFTFMTPAAFVRRPGRWIRELARKPGETGGTFSAAPNFAFEHAAVRGVPRDDEPPLDLSNVKGILNGSEPVSPASMRKFFEAFAPYGLKQTAVKPSYGLAEATLFVSTTPMDEVPTVIHVDRDELNNQRFVEVAADAPNAVAQVSAGKVGVSEWAVIVDADTASELPDGQIGEIWLHGNNLGTGYWGKEEESAQTFKNILKSRISESRAEGAPDDALWVRTGDYGTYFKDHLYIAGRIKDLVIIDGRNHYPQDLECTAQESTKALRVGYAAAFSVPANQLPQTVFDDSHAGLKFDPEDTSEQLVIVGERAAGTHKLDHQPIVDDIRAAIAVGHGVTVRDVLLVSAGTIPRTSSGKIGRRACRAAYLDGSLRSGVGSPTVFATSD |  |  |  | 248 µM | 139 µM
